Results as given in article PMC7461116, “Synthesis, Anticonvulsant and Antinociceptive Activity of New Hybrid Compounds: Derivatives of 3-(3-Methylthiophen-2-yl)-pyrrolidine-2,5-dione” (International Journal of Molecular Sciences, 2020).
Structures can show the parent of a compound that is named as a salt. Where two headings read alike, the source gives them in different places.

How the values were obtained:
[1] = tested on: Voltage-Sensitive Na+ Channel (site 2); assay: Radioligand binding, [3H]BTX, Cerep; conditions: 100 µM, rat cerebral cortex synaptoneurosomal preparations
Experimental: (§1) Binding and functional studies were performed commercially in Cerep Laboratories (Poitiers, France) using testing procedures described elsewhere (Na^+ channel-site 2 [27], L-type Ca^2+ channel, dihydropyridine site, TRPV1 (VR1) (h) (antagonist effect), GABA transporter (GAT)). All experiments were performed in duplicate.

[2] = tested on: 6 Hz psychomotor seizures; assay: 6 Hz (32 mA) psychomotor seizure test; type: in vivo, mice; conditions: for responders at 100 mg/kg / ED50: Mus musculus; for responders at 100 mg/kg / 6 Hz: tested animals protected: ip, 0.5 h; for ED50 / PI (TD50/ED50), 6 Hz: mice ip; for ED50: 95% confidence limit in brackets
Source text: Psychomotor seizures were induced via corneal stimulation (6 Hz, 32 mA, 0.2 ms rectangular pulse width, 3 s duration) using a constant-current device (ECT Unit 57800, Ugo Basile, Italy). A drop of 1% solution of lidocaine hydrochloride was applied to the mouse corneas before stimulation to provide local anesthesia and ensure optimal current conductivity. After the electrical stimulation, mice were gently released and observed for the presence or absence of seizure activity, being characterized by immobility associated with rearing, forelimb clonus, twitching of the vibrissae, stun, and Straub-tail. Lack of the above symptoms or their cessation within 10 s from the stimulation was considered as absence of seizure activity. The initial anticonvulsant screening of the tested compounds was performed at a fixed dose of 100 mg/kg (four mice per group). Then ED50 was calculated for active compounds as described above.

[3] = tested on: Voltage-Sensitive Ca2+ Channel L-type (dihydropyridine site); assay: Radioligand binding, [3H]nitrendipine, Cerep; conditions: 100 µM, rat cerebral cortex synaptoneurosomal preparations
Experimental: as §1

[4] = tested on: acetic acid-induced writhing behavior; assay: Acetic acid-induced writhing test; type: in vivo; conditions: mice, ip, 30 mg/kg
Experimental: Mice were injected with the test compound or vehicle by intraperitoneally route (ip), and 30 min later, 0.9 % acetic acid solution was injected ip and the animals were placed into the glass beakers. The writhing response (lengthwise stretching of the torso, concave arching of the back, and extension of the hind limbs) was recorded for 30 min. The analgesic effect of the tested substances was determined by a decrease in the number of writhes observed and the results were expressed as percent inhibition of writhing behavior (as index of analgesia), and was calculated using the following formula: %Inhibition=(NA−NB)/NA×100, where NA—number of writhes in vehicle group, NB—number of writhes in drug-treated group.

[5] = tested on: maximal electroshock seizures; assay: Maximal electroshock seizure (MES) test; type: in vivo, mice; conditions: for responders at 100 mg/kg / ED50: Mus musculus; for responders at 100 mg/kg / MES: tested animals protected: ip, 0.5 h; for ED50: mice ip, 95% confidence limit in brackets
Experimental: The MES test was performed as previously described. Stimuli (25 mA, 0.2 s, 50 Hz) were generated by a constant current stimulator (Rodent shocker, Type 221, Hugo Sachs Elektronik, Germany) and delivered with the use of auricular electrodes. During the stimulation, each mouse was restrained manually, and immediately after the stimulation gently released for observation. The endpoint was the tonic extension of the hind limbs. Mice not displaying hindlimb tonic extension were considered to be protected from seizure. The initial anticonvulsant screening of the tested compounds was performed at a fixed dose of 100 mg/kg (four mice per group). […] To evaluate the ED50, at least three groups of animals were injected with various doses of tested compounds. Each group consisted of six animals.

[6] = tested on: motor impairment on rotarod; assay: Rotarod test (acute neurotoxicity, NT); type: in vivo; conditions: ip, 100 mg/kg, 0.5 h
Experimental: In this test mice were trained to balance on an accelerating rotarod that rotated at 10 rotations per minute (Rotarod apparatus, May Commat RR0711, Turkey; rod diameter: 3 cm). During the training session, the animals were placed on a rotating rod for 3 min with an unlimited number of trials. Proper experiment was conducted 24 h after the training trial. On the test day, trained mice were intraperitoneally pretreated with the test compound at a dose of 100 mg/kg and just before the MES test were tested on the rotarod. Neurotoxicity was indicated by the inability of the animal to maintain equilibration on the rod for 1 min. […] Each group consisted of six animals.

[7] = Rotarod test (acute neurotoxicity, NT); conditions: mouse, in vivo, mice ip
[8] = tested on: latency time to pain reaction; assay: Hot plate test; type: in vivo; conditions: mice, ip, 30 mg/kg
Experimental: The hot plate test was carried out based on the Eddy and Leimbach (1953) method. In this test, the apparatus was equipped with an electrically heated surface with a temperature controller that maintains surface temperature to a set point. Herein, the temperature was set at 55 °C. The animals were treated ip either with the test compounds, or vehicle 30 min before placing the animal on a hot plate apparatus. Latency time to pain reaction, i.e., the time until the animal licked its back paws or jumped was recorded by means of the stopwatch.

GABA Transporter (GAT) = assay: Radioligand binding, [3H]GABA, Cerep; conditions: 100 µM, rat cerebral cortex synaptoneurosomal preparations
Experimental: as §1

[9] = Hepatotoxicity, PrestoBlue viability assay; type: cell-based, human; conditions: human, Hep G2 cells, 1–100 μM, read-out: Hep G2 cell viability
Experimental: (§2) Hepatotoxicity of tested compounds was assessed in PrestoBlue (Thermo Fisher Scientific, Waltham, MA, USA) Experiments on microplate reader (SpectraMax® iD3, Molecular Devices, San Jose, CA, USA) using human hepatocellular carcinoma cells (Hep G2) ATCC® […]. The cells were cultured in standard conditions (37 °C, 5% CO2), in Dulbecco’s Modified Eagle’s Medium-high glucose, (DMEM, Gibco, Thermo Fisher Scientific, Waltham, MA, USA) supplemented with 10% fetal bovine serum (Thermo Fisher Scientific, Waltham, MA, USA), with added 100 IU/mL penicillin (Sigma Aldrich, Steinheim, Germany) and 100 µg/mL streptomycin (Sigma Aldrich). PrestoBlue reagent is a resazurin-based solution that functions as a cell viability indicator. Metabolically active cells are capable of reducing the PrestoBlue reagent, with the colorimetric changes used as an indicator to quantify the viability of cells in culture. This change can be determined by measuring the fluorescence. After 24 h of incubation with the compounds PrestoBlue reagent was added to wells of a microplate. After 20 min of incubation at 37 °C, the fluorescence intensity (EX 530; EM 580 nm) was measured in a plate reader. Viability values were calculated as a percentage of live cells with respect to the control sample (DMSO). The negative control was medium without cells. Astemizole was used as a reference substance.

[10] = tested on: PTZ-induced clonic seizures; assay: Subcutaneous pentylenetetrazole (scPTZ) seizure test; type: in vivo; conditions: mice, 100 mg/kg
Experimental: Clonic convulsions were induced by the subcutaneous (sc) administration of PTZ at a dose of 100 mg/kg. After PTZ injection, the mice were placed separately and observed during the next 30 min for the occurrence of clonic seizures. Clonic seizures were defined as clonus of the whole body lasting more than 3 s, with an accompanying loss of righting reflex. The latency to first clonus, the number of seizure episodes, and mortality rate were noted and compared with vehicle-treated and drug-treated groups. The absence of clonic convulsions within the observed time period was interpreted as the compound’s ability to protect against PTZ-induced seizures.

TRPV1 receptor = target: T1, TRPV1 receptor (Homo sapiens, UniProt Q8NER1); assay: TRPV1 (VR1) (h) antagonist effect, Cerep; type: biochemical; conditions: 100 µM
T1 construct: Cerep Laboratories (Poitiers, France)
T1 sequence (Q8NER1 whole entry): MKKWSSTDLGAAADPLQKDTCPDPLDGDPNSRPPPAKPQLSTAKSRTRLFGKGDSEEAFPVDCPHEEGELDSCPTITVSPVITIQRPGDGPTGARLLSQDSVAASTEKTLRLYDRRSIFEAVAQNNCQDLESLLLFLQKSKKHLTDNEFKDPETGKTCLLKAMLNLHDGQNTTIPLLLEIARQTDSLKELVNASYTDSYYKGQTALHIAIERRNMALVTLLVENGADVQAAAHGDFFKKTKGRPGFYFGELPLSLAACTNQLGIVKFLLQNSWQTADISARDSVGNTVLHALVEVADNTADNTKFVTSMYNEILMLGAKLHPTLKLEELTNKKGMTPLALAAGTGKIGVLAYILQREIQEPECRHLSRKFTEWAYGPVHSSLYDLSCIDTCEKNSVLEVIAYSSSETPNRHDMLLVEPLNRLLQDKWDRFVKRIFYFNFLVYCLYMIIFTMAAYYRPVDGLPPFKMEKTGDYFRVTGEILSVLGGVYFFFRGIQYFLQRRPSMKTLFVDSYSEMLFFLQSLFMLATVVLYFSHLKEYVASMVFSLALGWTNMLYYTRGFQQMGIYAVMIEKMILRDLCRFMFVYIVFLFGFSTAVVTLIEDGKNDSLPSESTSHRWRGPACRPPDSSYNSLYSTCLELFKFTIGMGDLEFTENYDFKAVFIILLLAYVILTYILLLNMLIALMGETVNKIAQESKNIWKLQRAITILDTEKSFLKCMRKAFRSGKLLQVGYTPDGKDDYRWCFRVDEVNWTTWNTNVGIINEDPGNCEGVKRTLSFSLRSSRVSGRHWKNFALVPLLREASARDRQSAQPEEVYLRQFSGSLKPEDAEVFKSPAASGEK
Experimental: as §1

Hep G2 cells = assay: Hepatotoxicity, PrestoBlue viability assay; type: cell-based, human; conditions: 24 h; for Hepatotoxicity in Hep G2 cells, in words: 1 and 10 μM; for Inhibition of viability of Hep G2 cells: 100 and 50 μM
Experimental: as §2

[11] = tested on: 6 Hz psychomotor seizures; conditions: mice ip, reference AEDs, cited from earlier work; for 6 Hz ED50: 32 mA
[12] = tested on: maximal electroshock seizures; conditions: cited from earlier work
[13] = read-out: 6 Hz: number of mice protected/number of mice tested
[14] = read-out: MES: number of mice protected/number of mice tested
[15] = mice, 100 mg/kg, 32 mA, read-out: 6 Hz: number of mice protected/number of mice tested (converted)
[16] = mice, 100 mg/kg, read-out: MES: number of mice protected/number of mice tested (converted)

SMILES: Cc1ccsc1C1CC(=O)N(CCCN2CCOCC2)C1=O (racemic) [Compound 4, (R,S)-3-(3-Methylthiophen-2-yl)-1-(3-morpholinopropyl)pyrrolidine-2,5-dione hydrochloride]
- % Inhibition of Control Specific Binding, Voltage-Sensitive Na+ Channel (site 2) [1]: 42.1%
- responders at 100 mg/kg [2, 13]: 75%
- ED50 ([2]; 32 mA): 75.6 mg/kg
- PI (TD50/ED50), 6 Hz [2]: < 2.65
- 6 Hz: tested animals protected ([2]; mice, 100 mg/kg, 32 mA): at least 75%
- % Inhibition of Control Specific Binding, Voltage-Sensitive Ca2+ Channel L-typ [3]: 39.7%
- Reduction of number of writhes (inhibition of writhing behavior) [4]: 29.8%
- responders at 100 mg/kg [5, 14]: 75%
- ED50 [5]: 62.1 mg/kg
- MES: tested animals protected ([5]; mice, 100 mg/kg): 75%
- NT: number of mice with motor impairment/number of mice tested [6]: 0/4
- TD50 at 0.5 h [7]: < 200 mg/kg
- Hot plate: prolongation of latency time to pain reaction [8]: inactive
- % Inhibition of Control Specific Binding, GABA Transporter (GAT) (GABA Transporter (GAT)): −3.2%
- viability at 24 h [9]: > 94%
- scPTZ: effect in words [10]: no significant effect

SMILES: Cc1ccsc1C1CC(=O)N(CCCN2CCN(c3cccc(C(F)(F)F)c3)CC2)C1=O (racemic) [Compound 6, (R,S)-3-(3-Methylthiophen-2-yl)-1-(3-(4-(3-(trifluoromethyl)phenyl)piperazin-1-yl)propyl)pyrrolidine-2,5-dione hydrochloride]
- % Inhibition of Control Specific Binding, Voltage-Sensitive Na+ Channel (site 2) [1]: 96.7%
- responders at 100 mg/kg [2, 13]: 75%
- ED50 ([2]; 32 mA): 78.3 mg/kg
- PI (TD50/ED50), 6 Hz [2]: < 1.28
- 6 Hz: tested animals protected ([2]; mice, 100 mg/kg, 32 mA): at least 75%
- % Inhibition of Control Specific Binding, Voltage-Sensitive Ca2+ Channel L-typ [3]: 69.9%
- Reduction of number of writhes (inhibition of writhing behavior) [4]: 27%
- responders at 100 mg/kg [5, 14]: 25%
- NT: number of mice with motor impairment/number of mice tested [6]: 4/4
- TRPV1 antagonist effect (TRPV1 receptor): 74.8%
- TD50 at 0.5 h [7]: < 100 mg/kg
- Hot plate: prolongation of latency time to pain reaction [8]: 49%
- Hepatotoxicity in Hep G2 cells, in words (Hep G2 cells): no hepatotoxicity
- Inhibition of viability of Hep G2 cells (Hep G2 cells): 13–28%

SMILES: Cc1ccsc1C1CC(=O)N(CCCN2CCN(c3ccc(Cl)c(Cl)c3)CC2)C1=O (racemic) [Compound 9, (R,S)-1-(3-(4-(3,4-Dichlorophenyl)piperazin-1-yl)propyl)-3-(3-methylthiophen-2-yl)pyrrolidine-2,5-dione hydrochloride]
- % Inhibition of Control Specific Binding, Voltage-Sensitive Na+ Channel (site 2) [1]: 78.8%
- ED50 ([2]; 32 mA): > 130 mg/kg
- responders at 100 mg/kg [2, 15]: 50%
- % Inhibition of Control Specific Binding, Voltage-Sensitive Ca2+ Channel L-typ [3]: −9.5%
- Reduction of number of writhes (inhibition of writhing behavior) [4]: 61.44%
- ED50 [5]: > 130 mg/kg
- responders at 100 mg/kg [5, 16]: 50%
- MES: tested animals protected ([5]; mice, 100 mg/kg): 50%
- NT: number of mice with motor impairment/number of mice tested [6]: 0/4
- TRPV1 antagonist effect (TRPV1 receptor): 109.5%
- TD50 at 0.5 h [7]: > 300 mg/kg
- Hot plate: prolongation of latency time to pain reaction [8]: 43%
- Hepatotoxicity in Hep G2 cells, in words (Hep G2 cells): no hepatotoxicity
- Inhibition of viability of Hep G2 cells (Hep G2 cells): 13–28%

SMILES: Cc1ccsc1C1CC(=O)N(CC(=O)N2CCN(c3cccc(Cl)c3)CC2)C1=O (racemic) [Compound 14, (R,S)-1-(2-(4-(3-Chlorophenyl)piperazin-1-yl)-2-oxoethyl)-3-(3-methylthiophen-2-yl)pyrrolidine-2,5-dione]
- ED50 ([2]; 32 mA): 153 mg/kg
- responders at 100 mg/kg [2, 15]: 50%
- responders at 100 mg/kg [5, 16]: 0%
- NT: number of mice with motor impairment/number of mice tested [6]: 0/4
- TD50 at 0.5 h [7]: > 300 mg/kg
- scPTZ: effect in words [10]: no significant effect

SMILES: COc1ccc(CCN2CCC(Nc3nc4ccccc4n3Cc3ccc(F)cc3)CC2)cc1 [Astemizole, reference compound]
- Hepatotoxicity in HepG2 cells, in words (Hep G2 cells; 1–100 μM): inhibits the viability of HepG2 cells in a dose-dependent manner

SMILES: CCC1(C)CC(=O)NC1=O (stereo not shown) [ETX, ethosuximide]
- 6 Hz ED50 [11]: 221.7 (183.0–268.5) mg/kg
- PI (TD50/ED50), 6 Hz [11]: 3.2 (6 Hz)
- MES: protection in words [12]: did not show protection
- MES ED50 ([12]; mice ip, reference AEDs): > 500 mg/kg

SMILES: CCCC(CCC)C(=O)O [VPA, valproic acid]
- 6 Hz ED50 [11]: 130.6 (117.6–145.2) mg/kg
- PI (TD50/ED50), 6 Hz [11]: 3.3
- PI (TD50/ED50), MES ([12]; mice ip, reference AEDs): 1.7
